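Values below derive from 48-hour exposures of cells grown in 96-well plates, with endpoints linearly interpolated between the two concentrations bracketing the appropriate inhibition level. TGI is the concentration that stops growth completely.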
Legend:
Assay in all cases: DTP human tumour cell line panel, 48 h
786-0 renal = test system: 786-0 renal
A498 renal = test system: A498 renal
A549 NSCLC = test system: A549 NSCLC
ACHN renal = test system: ACHN renal
BT-549 breast = test system: BT-549 breast
CAKI-1 renal = test system: CAKI-1 renal
CCRF-CEM leukemia = test system: CCRF-CEM leukemia
COLO 205 colon = test system: COLO 205 colon
DU-145 prostate = test system: DU-145 prostate
EKVX NSCLC = test system: EKVX NSCLC
HCC-2998 colon = test system: HCC-2998 colon
HCT-116 colon = test system: HCT-116 colon
HCT-15 colon = test system: HCT-15 colon
HL-60(TB) leukemia = test system: HL-60(TB) leukemia
HOP-62 NSCLC = test system: HOP-62 NSCLC
HS 578T breast = test system: HS 578T breast
HT29 colon = test system: HT29 colon
IGROV1 ovarian = test system: IGROV1 ovarian
K-562 leukemia = test system: K-562 leukemia
KM12 colon = test system: KM12 colon
LOX IMVI melanoma = test system: LOX IMVI melanoma
M14 melanoma = test system: M14 melanoma
MALME-3M melanoma = test system: MALME-3M melanoma
MCF7 breast = test system: MCF7 breast
MDA-MB-435 = test system: MDA-MB-435
MDA-N = test system: MDA-N
MOLT-4 leukemia = test system: MOLT-4 leukemia
NCI-H23 lung = test system: NCI-H23 lung
NCI-H460 lung = test system: NCI-H460 lung
NCI-H522 lung = test system: NCI-H522 lung
NCI/ADR-RES ovarian = test system: NCI/ADR-RES ovarian
OVCAR-3 ovarian = test system: OVCAR-3 ovarian
OVCAR-4 ovarian = test system: OVCAR-4 ovarian
OVCAR-5 ovarian = test system: OVCAR-5 ovarian
OVCAR-8 ovarian = test system: OVCAR-8 ovarian
PC-3 prostate = test system: PC-3 prostate
RPMI-8226 leukemia = test system: RPMI-8226 leukemia
SF-268 CNS = test system: SF-268 CNS
SF-295 CNS = test system: SF-295 CNS
SF-539 CNS = test system: SF-539 CNS
SK-MEL-2 melanoma = test system: SK-MEL-2 melanoma
SK-MEL-28 melanoma = test system: SK-MEL-28 melanoma
SK-MEL-5 melanoma = test system: SK-MEL-5 melanoma
SK-OV-3 ovarian = test system: SK-OV-3 ovarian
SNB-19 CNS = test system: SNB-19 CNS
SR leukemia = test system: SR leukemia
SW-620 colon = test system: SW-620 colon
T-47D breast = test system: T-47D breast
U251 CNS = test system: U251 CNS
UACC-257 melanoma = test system: UACC-257 melanoma
UACC-62 melanoma = test system: UACC-62 melanoma
UO-31 renal = test system: UO-31 renal
HOP-92 NSCLC = test system: HOP-92 NSCLC
MDA-MB-231 breast = test system: MDA-MB-231 breast
NCI-H226 lung = test system: NCI-H226 lung
SN12C renal = test system: SN12C renal
TK-10 renal = test system: TK-10 renal
RXF 393 renal = test system: RXF 393 renal
SNB-75 CNS = test system: SNB-75 CNS

Measured: TGI

S=C(Nc1ccccc1)c1ccc(CN2CCCCC2)s1
35.8 µM: MDA-MB-435
44.7 µM: SW-620 colon
32.5 µM: LOX IMVI melanoma
37.9 µM: HCC-2998 colon
46.6 µM: MALME-3M melanoma
61.3 µM: BT-549 breast
44 µM: SNB-19 CNS
34.5 µM: HCT-116 colon | HL-60(TB) leukemia
35 µM: OVCAR-5 ovarian
35.7 µM: MCF7 breast
64.8 µM: HOP-62 NSCLC
70.4 µM: RPMI-8226 leukemia
36.4 µM: COLO 205 colon
43.6 µM: K-562 leukemia
46.2 µM: UACC-257 melanoma
60.5 µM: HS 578T breast
24.1 µM: HT29 colon
34.2 µM: 786-0 renal
32.9 µM: M14 melanoma
51.5 µM: SR leukemia
44.2 µM: U251 CNS
35.4 µM: NCI-H522 lung
37.4 µM: A498 renal
42.8 µM: NCI-H23 lung
48.8 µM: CAKI-1 renal
35.3 µM: SK-MEL-28 melanoma
36.9 µM: KM12 colon | SK-OV-3 ovarian
33.4 µM: MDA-N
39.7 µM: OVCAR-8 ovarian
43.5 µM: SK-MEL-2 melanoma
37.5 µM: SF-295 CNS
48.9 µM: IGROV1 ovarian
45.4 µM: NCI-H460 lung
85.3 µM: T-47D breast
31.2 µM: SK-MEL-5 melanoma
37.2 µM: UACC-62 melanoma
41.3 µM: CCRF-CEM leukemia
30.6 µM: UO-31 renal
> 100 µM: ACHN renal | DU-145 prostate | EKVX NSCLC | NCI/ADR-RES ovarian | OVCAR-3 ovarian | OVCAR-4 ovarian | PC-3 prostate | SF-268 CNS | SF-539 CNS
71.4 µM: MOLT-4 leukemia
98.3 µM: A549 NSCLC
36.2 µM: HCT-15 colon

CCc1n[nH]c(=O)n1O
> 100 µM: 786-0 renal | A498 renal | A549 NSCLC | ACHN renal | BT-549 breast | CAKI-1 renal | CCRF-CEM leukemia | COLO 205 colon | DU-145 prostate | EKVX NSCLC | HCT-116 colon | HL-60(TB) leukemia | HOP-62 NSCLC | HOP-92 NSCLC | HS 578T breast | HT29 colon | IGROV1 ovarian | K-562 leukemia | KM12 colon | MALME-3M melanoma | MCF7 breast | MDA-MB-231 breast | MDA-MB-435 | MDA-N | MOLT-4 leukemia | NCI-H226 lung | NCI-H23 lung | NCI-H522 lung | NCI/ADR-RES ovarian | OVCAR-3 ovarian | OVCAR-4 ovarian | OVCAR-8 ovarian | SF-268 CNS | SF-295 CNS | SF-539 CNS | SK-MEL-2 melanoma | SK-MEL-28 melanoma | SK-MEL-5 melanoma | SK-OV-3 ovarian | SN12C renal | SNB-19 CNS | SR leukemia | SW-620 colon | T-47D breast | TK-10 renal | U251 CNS | UACC-257 melanoma | UACC-62 melanoma | UO-31 renal

O=S(=O)(O)c1cc(S(=O)(=O)O)c2c(Nc3ccnc4ccccc34)ccc(S(=O)(=O)O)c2c1
> 100 µM: 786-0 renal | A498 renal | A549 NSCLC | ACHN renal | BT-549 breast | CAKI-1 renal | CCRF-CEM leukemia | COLO 205 colon | DU-145 prostate | EKVX NSCLC | HCC-2998 colon | HCT-116 colon | HCT-15 colon | HL-60(TB) leukemia | HOP-62 NSCLC | HS 578T breast | HT29 colon | IGROV1 ovarian | KM12 colon | LOX IMVI melanoma | M14 melanoma | MALME-3M melanoma | MCF7 breast | MDA-MB-231 breast | MDA-MB-435 | MDA-N | MOLT-4 leukemia | NCI-H226 lung | NCI-H23 lung | NCI-H460 lung | NCI-H522 lung | NCI/ADR-RES ovarian | OVCAR-3 ovarian | OVCAR-4 ovarian | OVCAR-5 ovarian | OVCAR-8 ovarian | PC-3 prostate | RPMI-8226 leukemia | RXF 393 renal | SF-268 CNS | SF-295 CNS | SF-539 CNS | SK-MEL-2 melanoma | SK-MEL-28 melanoma | SK-MEL-5 melanoma | SK-OV-3 ovarian | SN12C renal | SNB-19 CNS | SNB-75 CNS | SW-620 colon | T-47D breast | TK-10 renal | U251 CNS | UACC-257 melanoma | UACC-62 melanoma | UO-31 renal

COc1ccc(C2SC(N)=Nc3c2c(C)nn3C(=O)Cc2ccccc2)cc1 (stereo not drawn)
> 100 µM: 786-0 renal | A498 renal | A549 NSCLC | ACHN renal | BT-549 breast | CAKI-1 renal | CCRF-CEM leukemia | COLO 205 colon | DU-145 prostate | EKVX NSCLC | HCC-2998 colon | HCT-116 colon | HCT-15 colon | HL-60(TB) leukemia | HOP-62 NSCLC | HS 578T breast | HT29 colon | IGROV1 ovarian | K-562 leukemia | KM12 colon | LOX IMVI melanoma | M14 melanoma | MALME-3M melanoma | MCF7 breast | MDA-MB-231 breast | MDA-MB-435 | MDA-N | MOLT-4 leukemia | NCI-H226 lung | NCI-H23 lung | NCI-H460 lung | NCI-H522 lung | OVCAR-8 ovarian | PC-3 prostate | RPMI-8226 leukemia | SF-268 CNS | SF-295 CNS | SF-539 CNS | SK-MEL-28 melanoma | SK-MEL-5 melanoma | SK-OV-3 ovarian | SN12C renal | SNB-19 CNS | SNB-75 CNS | SR leukemia | SW-620 colon | T-47D breast | TK-10 renal | UACC-257 melanoma | UACC-62 melanoma | UO-31 renal

CCC1OC(=O)CC(O)C(C)C(OC2OC(C)C(O)C(N(C)C)C2O)C(CC=O)CC(C)C(=O)/C=C/C2(C)OC2C1C (stereo not drawn)
53.7 µM: T-47D breast
91.8 µM: NCI-H23 lung
37 µM: HT29 colon
27.4 µM: MALME-3M melanoma
34.6 µM: RPMI-8226 leukemia
47.6 µM: IGROV1 ovarian
44.7 µM: UACC-257 melanoma
66.2 µM: MDA-MB-231 breast
36.3 µM: COLO 205 colon
76.1 µM: HS 578T breast
80.5 µM: SF-539 CNS
50.7 µM: MCF7 breast
60.2 µM: CCRF-CEM leukemia
34.1 µM: LOX IMVI melanoma
79.8 µM: SF-268 CNS
44.6 µM: SR leukemia
73.6 µM: OVCAR-3 ovarian
37.2 µM: HCT-116 colon
94.3 µM: A498 renal
39.2 µM: M14 melanoma
> 100 µM: A549 NSCLC | ACHN renal | DU-145 prostate | EKVX NSCLC | HCT-15 colon | HL-60(TB) leukemia | HOP-62 NSCLC | K-562 leukemia | MDA-MB-435 | MDA-N | NCI-H226 lung | NCI-H460 lung | OVCAR-4 ovarian | OVCAR-5 ovarian | PC-3 prostate | SF-295 CNS | SK-MEL-2 melanoma | SK-MEL-28 melanoma | SK-MEL-5 melanoma | SK-OV-3 ovarian | SNB-19 CNS | TK-10 renal | U251 CNS
33 µM: NCI-H522 lung
90 µM: SNB-75 CNS
30.5 µM: SN12C renal
29.6 µM: KM12 colon
41.2 µM: MOLT-4 leukemia | SW-620 colon
18.3 µM: OVCAR-8 ovarian
31.2 µM: HCC-2998 colon
82.1 µM: CAKI-1 renal
72.6 µM: 786-0 renal
99.6 µM: BT-549 breast
49.8 µM: UACC-62 melanoma

Reference: PubChem BioAssay (NCI)
